Assay results from ChEMBL document CHEMBL1147574, “Synthesis of a novel peptidic photoaffinity probe for the PTP-1B enzyme” (Bioorg Med Chem Lett, 2004).

How the values were obtained:
[1] = Percent adduct formed by co-valent binding to the enzyme was assessed by irradiating a solution of the photoprobe and the PTP1B enzyme with a 40W lamp
[2] = Inhibitory activity of compound against phosphotyrosine phosphatase-1B

Q: Which Adduct formation [1] does the source give for `NC(=O)[C@H](Cc1ccc(C(F)(F)P(=O)(O)O)c(Br)c1)NC(=O)[C@H](Cc1ccc(C(F)(F)P(=O)(O)O)c(Br)c1)NC(=O)c1cc(Br)cc(C2(C(F)(F)F)N=N2)c1` here?
A: 6%

Q: And the IC50 [2]?
A: 0.3 nM

Q: With `NC(=O)[C@H](Cc1ccc(C(F)(F)P(=O)(O)O)cc1)NC(=O)[C@H](Cc1ccc(C(F)(F)P(=O)(O)O)cc1)NCc1cc(Br)cc(C2(C(F)(F)F)N=N2)c1` as the compound, how does the IC50 [2] read?
A: 1700 nM

Q: With `NC(=O)[C@H](Cc1ccc(C(F)(F)P(=O)(O)O)cc1)NC(=O)[C@H](Cc1ccc(C(F)(F)P(=O)(O)O)cc1)NC(=O)c1cc(I)cc(C2(C(F)(F)F)N=N2)c1` as the compound, how does the Adduct formation [1] read?
A: 8%

Q: What about the IC50 [2] of the same compound?
A: 9 nM

Q: What does the source list for `NC(=O)[C@H](Cc1ccc(C(F)(F)P(=O)(O)O)cc1)NC(=O)[C@H](Cc1ccc(C(F)(F)P(=O)(O)O)cc1)NC(=O)[C@H](CCC(=O)O)NCc1cc(Br)cc(C2(C(F)(F)F)N=N2)c1`?
A: Adduct formation [1]: 5%; IC50 [2]: 3 nM

Q: For `NC(=O)[C@H](Cc1ccc(C(F)(F)P(=O)(O)O)cc1)NC(=O)[C@H](Cc1ccc(C(F)(F)P(=O)(O)O)cc1)NC(=O)[C@H](CCC(=O)O)NC(=O)c1cc(Br)cc(C2(C(F)(F)F)N=N2)c1`, which Adduct formation [1] is on record?
A: 8%

Q: What about the IC50 [2] of the same compound?
A: 14 nM

Q: For `NC(=O)[C@H](Cc1ccc(C(F)(F)P(=O)(O)O)cc1)NC(=O)c1cc(Br)cc(C2(C(F)(F)F)N=N2)c1`, which IC50 [2] is on record?
A: 9500 nM

Q: With `NC(=O)[C@H](Cc1ccc(C(F)(F)P(=O)(O)O)cc1)NC(=O)[C@H](Cc1ccc(C(F)(F)P(=O)(O)O)cc1)NC(=O)c1cc(Br)cc(C2(C(F)(F)F)N=N2)c1` as the compound, how does the IC50 [2] read?
A: 12 nM

Q: For `NC(=O)[C@H](Cc1ccc(C(F)(F)P(=O)(O)O)c(Br)c1)NC(=O)[C@H](Cc1ccc(C(F)(F)P(=O)(O)O)c(Br)c1)NC(=O)c1cc(I)cc(C2(C(F)(F)F)N=N2)c1`, which Adduct formation [1] is on record?
A: 8%

Q: What about the IC50 [2] of the same compound?
A: 4 nM

Q: Which Adduct formation [1] does the source give for `NC(=O)[C@H](Cc1ccc(C(F)(F)P(=O)(O)O)cc1)NC(=O)[C@H](Cc1cc(Br)cc(C2(C(F)(F)F)N=N2)c1)NC(=O)c1cc(Br)cc(C2(C(F)(F)F)N=N2)c1` here?
A: < 5%

Q: And the IC50 [2]?
A: 15 nM
